The record followed here is article PMC4178217, “Quinoline 3-sulfonamides inhibit lactate dehydrogenase A and reverse aerobic glycolysis in cancer cells” (Cancer & Metabolism, 2013).

The term fraction unbound denotes the share of the substance not bound to proteins or other matrix. A higher fraction unbound goes with much free substance.

Like-named read-outs stand apart in the source and are kept apart here.

Data set [1] concerns Snu398 cells. Description: Metabolomics analysis, Snu398 whole-cell extracts. It is filed as cell-based, human. The conditions noted are these: Snu398 whole-cell lysates, 10 μM, 24 h.
Data set [2] relates to Snu398 cells. The data set is described as follows: Compound cellular permeability assay, cytosolic extract. It is filed as in vitro ADME, human. The conditions noted are these: Snu398 treated with 1 μM for 1.5 h, LC/MS/MS. As to the method:
The medium was removed, cells were washed in phosphate-buffered saline (PBS), and cytosolic extracts were prepared by solubilization in Qproteome lysis buffer (Qiagen, Valencia, CA). […] The medium was removed, cells were washed in PBS and solubilized in 50:50 mixture of methanol and acetonitrile. Compound concentration in the cytosolic or whole-cell extract was determined by LC/MS/MS analysis. An Acquity UPLC system (Waters Inc., Milford, MA) was coupled to an API 4000 or API 5000 triple-quad mass spectrometer (Applied Biosystems). […] Compound concentration in cells was determined by counting the number of cells in sample wells and assuming 3 pL/cell volume.

In a further data set the target is Cyclooxygenase 2 (Homo sapiens, UniProt P35354). The data set is described as follows: Cyclooxygenase 2 ANT. Type of data set: biochemical. The note with it: antagonist; read-out: pIC50 Cyclooxygenase 2 ANT (converted). The text has this:
(§1) ANT = antagonist (pIC50), AG = agonist (pEC50). pIC50 and pEC50 are the negative logarithms10 of IC50 and EC50, respectively. Click here for file

Data set [3] concerns the target Nicotinic Ach Receptor A1 (Homo sapiens, UniProt P02708+P07510+Q07001). The data set is described as follows: Nicotinic Ach Receptor A1 AG.
Description: as §1

A further data set deals with T1, Serotonin Receptor 5HT3 (Homo sapiens, UniProt P46098).
T1 sequence (P46098 24-478): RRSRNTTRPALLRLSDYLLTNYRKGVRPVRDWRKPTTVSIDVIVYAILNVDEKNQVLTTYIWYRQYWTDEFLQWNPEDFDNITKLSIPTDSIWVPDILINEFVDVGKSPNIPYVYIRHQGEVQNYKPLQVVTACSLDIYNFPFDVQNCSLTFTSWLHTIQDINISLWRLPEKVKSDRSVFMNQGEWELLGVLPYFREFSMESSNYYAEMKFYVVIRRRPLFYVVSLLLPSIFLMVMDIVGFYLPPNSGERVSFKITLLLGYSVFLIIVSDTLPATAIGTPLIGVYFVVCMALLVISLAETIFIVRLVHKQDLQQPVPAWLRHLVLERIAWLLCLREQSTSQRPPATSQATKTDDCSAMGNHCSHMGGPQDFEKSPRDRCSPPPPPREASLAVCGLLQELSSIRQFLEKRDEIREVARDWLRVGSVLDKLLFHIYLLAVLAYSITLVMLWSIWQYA
The data set is described as follows: Serotonin Receptor 5HT3 ANT. The note with it: antagonist; read-out: pIC50 Serotonin Receptor 5HT3 ANT (converted).
Description: as §1

In another data set the target is recombinant human LDHB (Homo sapiens, UniProt P07195). The data set is described as follows: recombinant human LDHB enzyme assay (lactate to pyruvate, NADH via diaphorase/resazurin).
A further data set relates to HepG2 cells. Description: 13C NMR spectroscopy of glucose consumption and lactate production, HepG2. Type of data set: cell-based, human. The note with it: HepG2, 10 μM. Here is the method:
After this pre-incubation, cells were washed in PBS and resuspended in 400 μL of glucose-free RPMI supplemented with 10% deuterium oxide, 11 mM D-(1,6-^13C2)glucose, and LDHA inhibitor or DMSO. An additional 600 μL of the same medium was gently added to top off the resuspended cells. Five mm NMR tubes with reduced sample depth (Shigemi Inc, Allison Park, PA, USA) were used to ensure that the cells remain inside the active volume of the receiver coil of the probe. […] . Prior to Fourier transformation, sensitivity and resolution were enhanced by applying an exponential line-broadening of 1 Hz over the first 32,000 data points and then zero filled to 256,000 data points. Spectra were analyzed using in-house data analysis software.

Data set [4] deals with Snu398 cells. The data set is described as follows: Cell proliferation and survival, Snu398 (trypan blue, Vi-Cell). It is filed as cell-based, human. Here is the method:
Sixty thousand Snu398 cells per well were plated in 6-well tissue culture plates in RPMI-1640 medium supplemented with 2.5% charcoal-stripped FBS (Life Technologies). Cells were allowed to attach overnight and then DMSO control or the indicated doses of LDHA inhibitor dissolved in DMSO were added directly to the wells. After 4 to 8 days of incubation in the indicated oxygen conditions, adherent cells were trypsinized, counted, and had their viability assessed by the trypan-blue exclusion method using the Vi-Cell XR Cell Viability Analyzer (Beckman Coulter, Brea, CA, USA). The same procedure was carried out for HepG2 cells, except non-charcoal-stripped FBS was used. For PARP cleavage analysis, both floating and adherent cells were collected after 24 h and the whole-cell extracts were prepared in radioimmunoprecipitation assay (RIPA) buffer (Sigma-Aldrich) supplemented with protease and phosphatase inhibitor cocktails (Sigma-Aldrich). Solubilized proteins were separated by SDS-PAGE, transferred onto nitrocellulose membrane, and detected with each specific antibody.

Data set [5] in a line: human plasma protein binding by equilibrium dialysis. Type of data set: in vitro ADME. A general note: In equilibrium dialysis free small molecules cross a membrane that holds back macromolecules.
The test system of data set [6] is Snu398 cells. The data set is described as follows: Compound cellular permeability assay, whole-cell extract. It is filed as in vitro ADME, human. The note with it: Snu398 treated with 1 μM for 1.5 h. As to the method:
Compound cellular permeability assays For cytosolic permeability assay, twelve million Snu398 cells were allowed to attach overnight and treated with DMSO control or 1 µM Compound 2 for 1.5 h in 1.7 mM glucose medium. The medium was removed, cells were washed in phosphate-buffered saline (PBS), and cytosolic extracts were prepared by solubilization in Qproteome lysis buffer (Qiagen, Valencia, CA). For whole-cell permeability assay, 75,000 Snu398 cells/well were plated in 96-well plates and treated with DMSO control or 1 µM compounds for 1.5h in low glucose medium. The medium was removed, cells were washed in PBS and solubilized in 50:50 mixture of methanol and acetonitrile. Compound concentration in the cytosolic or whole-cell extract was determined by LC/MS/MS analysis. An Acquity UPLC system (Waters Inc., Milford, MA) was coupled to an API 4000 or API 5000 triple-quad mass spectrometer (Applied Biosystems). […] Compound concentration in cells was determined by counting the number of cells in sample wells and assuming 3 pL/cell volume.

Chain of Cyclooxygenase 2 (P35354 18-604, species assumed): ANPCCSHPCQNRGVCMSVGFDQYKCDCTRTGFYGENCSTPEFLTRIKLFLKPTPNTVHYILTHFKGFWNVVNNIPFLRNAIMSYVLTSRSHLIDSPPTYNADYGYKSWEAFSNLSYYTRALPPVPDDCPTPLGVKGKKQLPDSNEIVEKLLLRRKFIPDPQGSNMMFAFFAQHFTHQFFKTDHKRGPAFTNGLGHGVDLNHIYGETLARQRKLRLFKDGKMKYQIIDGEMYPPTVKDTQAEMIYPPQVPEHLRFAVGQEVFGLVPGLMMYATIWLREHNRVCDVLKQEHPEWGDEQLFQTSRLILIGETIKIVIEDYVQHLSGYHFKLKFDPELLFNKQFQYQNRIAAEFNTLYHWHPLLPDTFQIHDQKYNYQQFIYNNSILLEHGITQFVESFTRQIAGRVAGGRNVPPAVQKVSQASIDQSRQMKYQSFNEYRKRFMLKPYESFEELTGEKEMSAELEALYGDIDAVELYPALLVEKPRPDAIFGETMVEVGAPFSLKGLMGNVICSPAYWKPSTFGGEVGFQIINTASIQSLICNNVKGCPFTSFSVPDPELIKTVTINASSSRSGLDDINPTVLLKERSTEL
Chain of Nicotinic Ach Receptor A1 (P02708 21-457): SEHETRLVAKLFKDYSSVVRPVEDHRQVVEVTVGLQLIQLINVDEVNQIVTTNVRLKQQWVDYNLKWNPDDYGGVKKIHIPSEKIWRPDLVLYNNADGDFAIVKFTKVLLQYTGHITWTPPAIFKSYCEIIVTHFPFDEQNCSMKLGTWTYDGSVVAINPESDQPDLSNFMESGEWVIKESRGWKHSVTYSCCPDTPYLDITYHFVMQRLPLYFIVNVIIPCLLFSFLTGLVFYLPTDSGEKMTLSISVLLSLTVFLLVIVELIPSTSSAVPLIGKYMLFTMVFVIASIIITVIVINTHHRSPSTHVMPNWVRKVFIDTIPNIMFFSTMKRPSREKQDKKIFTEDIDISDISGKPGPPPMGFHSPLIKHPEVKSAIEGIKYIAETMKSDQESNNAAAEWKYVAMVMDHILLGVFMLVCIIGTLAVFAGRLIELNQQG
Chain of Nicotinic Ach Receptor A1 (P11230 24-501 partner): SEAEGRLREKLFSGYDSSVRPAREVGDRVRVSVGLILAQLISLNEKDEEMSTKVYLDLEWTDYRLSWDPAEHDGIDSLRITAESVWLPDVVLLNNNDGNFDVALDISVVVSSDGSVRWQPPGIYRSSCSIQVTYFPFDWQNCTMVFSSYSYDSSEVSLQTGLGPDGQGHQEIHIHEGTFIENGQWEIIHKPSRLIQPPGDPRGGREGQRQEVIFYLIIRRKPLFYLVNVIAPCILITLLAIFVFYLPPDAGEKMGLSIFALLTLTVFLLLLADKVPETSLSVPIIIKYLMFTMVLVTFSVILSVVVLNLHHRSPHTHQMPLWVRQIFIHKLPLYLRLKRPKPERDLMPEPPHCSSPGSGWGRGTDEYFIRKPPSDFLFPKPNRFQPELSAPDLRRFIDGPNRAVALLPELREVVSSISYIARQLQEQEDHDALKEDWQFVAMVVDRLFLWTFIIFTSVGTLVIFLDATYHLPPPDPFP
Chain of Nicotinic Ach Receptor A1 (Q07001 22-517): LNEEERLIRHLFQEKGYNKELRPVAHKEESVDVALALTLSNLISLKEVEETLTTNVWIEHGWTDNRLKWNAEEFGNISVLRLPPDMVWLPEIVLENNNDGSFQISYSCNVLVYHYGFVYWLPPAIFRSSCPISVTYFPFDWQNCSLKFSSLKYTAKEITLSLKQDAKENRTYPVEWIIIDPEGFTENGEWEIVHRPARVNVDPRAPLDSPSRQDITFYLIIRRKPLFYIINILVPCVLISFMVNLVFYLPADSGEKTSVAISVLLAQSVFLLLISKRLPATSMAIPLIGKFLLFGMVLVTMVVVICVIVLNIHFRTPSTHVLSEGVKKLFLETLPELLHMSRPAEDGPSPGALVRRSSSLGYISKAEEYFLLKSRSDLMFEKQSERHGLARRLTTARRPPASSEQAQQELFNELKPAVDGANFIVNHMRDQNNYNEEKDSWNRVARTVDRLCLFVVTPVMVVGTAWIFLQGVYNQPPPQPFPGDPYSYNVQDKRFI
Chain of Nicotinic Ach Receptor A1 (P07510 23-517): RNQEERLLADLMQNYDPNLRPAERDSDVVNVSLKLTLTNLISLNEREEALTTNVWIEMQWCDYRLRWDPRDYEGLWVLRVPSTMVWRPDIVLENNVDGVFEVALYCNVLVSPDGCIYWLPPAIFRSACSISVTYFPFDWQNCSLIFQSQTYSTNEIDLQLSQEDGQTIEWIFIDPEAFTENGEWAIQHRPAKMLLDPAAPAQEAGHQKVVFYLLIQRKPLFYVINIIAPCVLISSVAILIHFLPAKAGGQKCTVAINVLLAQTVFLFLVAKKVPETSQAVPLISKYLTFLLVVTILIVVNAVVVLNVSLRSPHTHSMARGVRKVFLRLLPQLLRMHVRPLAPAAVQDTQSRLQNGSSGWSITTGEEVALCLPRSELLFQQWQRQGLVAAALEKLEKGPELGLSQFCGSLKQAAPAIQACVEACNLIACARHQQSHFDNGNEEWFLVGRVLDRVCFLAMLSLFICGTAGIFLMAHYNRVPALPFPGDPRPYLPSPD
Chain of recombinant human LDHB (P07195 whole entry): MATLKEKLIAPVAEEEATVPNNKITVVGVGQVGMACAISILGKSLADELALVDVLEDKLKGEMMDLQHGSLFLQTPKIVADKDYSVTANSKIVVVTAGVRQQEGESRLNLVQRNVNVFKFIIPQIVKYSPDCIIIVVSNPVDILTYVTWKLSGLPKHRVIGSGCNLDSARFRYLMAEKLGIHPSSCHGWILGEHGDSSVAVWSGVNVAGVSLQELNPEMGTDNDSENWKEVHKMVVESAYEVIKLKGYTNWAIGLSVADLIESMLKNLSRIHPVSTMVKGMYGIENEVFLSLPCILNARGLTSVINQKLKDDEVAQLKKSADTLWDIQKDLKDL

Consider `COc1ncc(-c2ccc3c(Nc4cc(C(=O)O)cc(C5CCCC5)c4)c(S(=O)(=O)NC4CC4)cnc3c2)c(OC)n1` [Compound 2], for which the “increase of cytosolic glycolysis intermediates” value with Snu398 cells [1] is on record as at most 40 fold. In addition, the “apparent intracellular concentration (cytosolic extract)” value in the data set with Snu398 cells [2] is 18 µM. For the same compound, the values for the IC50 on Cyclooxygenase 2, at Serotonin Receptor 5HT3 and on recombinant human LDHB were 63.1 µM, 12.6 µM and 0.22 ± 0.02 µM, respectively. For the same compound, the EC50 in data set [3] (agonist, read-out: pEC50 Nicotinic Ach Receptor A1 AG (converted)) is 50.1 µM.

Turning to `COc1ncc(-c2ccc3c(Nc4cc(Oc5cc(F)cc(F)c5)cc(C(=O)O)c4)c(S(=O)(=O)NC4CC4)cnc3c2)c(OC)n1` [Compound 1], the “(3-13C)lactate production” value in the data set with HepG2 cells is on record as “significantly slowed down lactate production”. The EC50 in the data set on Snu398 cells [4] (Homo sapiens, SNU-398, Snu398, 4 to 8 days, read-out: viable cell number EC50) is 2.9 ± 0.6 µM; in [3], 50.1 µM. Further, the “dose sufficient to induce cell death” value with Snu398 cells [4] (Snu398, with FK866) was found to be 3 µM. In addition, the free fraction (fraction unbound) in data set [5] is 0.013. For the same compound, the “apparent intracellular concentration versus medium” value with Snu398 cells [6] is given as “higher apparent intracellular concentrations than that of the medium”. Further, the IC50 is 100 µM on Cyclooxygenase 2 and 50.1 µM on Serotonin Receptor 5HT3.
